In US5554653A, “Inhibitors of HIV protease useful for the treatment of AIDS” (Eli Lilly and Company, priority 1992, dated 1996):

Biological target: T1, HIV-1 protease (Human immunodeficiency virus type 1 group M subtype B, UniProt P04585)
T1 construct: Purified HIV-1 protease was obtained as described above; made in house; host or cells: E. coli K12 L507/pHP10D (NRRL B-18560)
Test: biochemical
Format: biochemical
Conditions: read-out: Fluorescence Assay IC5
Protocol: C. Preparation of Protease Fraction
A culture of E. coli K12 L507/pHP10D was grown to mid-log phase at 32° C. in LB media containing 12.5 μg/ml tetracycline. The cultivation temperature was quickly elevated to 40° C. to induce gene expression, and the cells were allowed to grow for 2.5 hours at this temperature before the culture was quickly chilled on ice. The cells were centrifuged and the cell pellet was resuspended in 20 mL 50 mmol MES buffer (pH 6.0) containing 1 mmol EDTA, 1 mmol DTT, 1 mmol PMSF and 10% glycerol ("Buffer A"). Cells were lysed by sonication using a Fischer Model 300 Dismembrator and a microtip probe. Following centrifugation at 27,000×g, the supernatant was diluted to a total volume of 60 mL with Buffer A and loaded onto a 2.0×19 cm QAE-Sepharose column (1 mL/min, 4° C.), that had been equilibrated in Buffer A. The column was washed isocratically for 180 min and then eluted with a gradient eluent of 0-1.0M sodium chloride in Buffer A over 120 min. Enzymatic activity was measured by HPLC using the synthetic peptide SQNYPIV as described in Margolin et al., Biochem. Biophys. Res. Commun., 167, 554-560 (1990); the production of the p1 peptide (SQNY) was measured.
The active fractions were combined, made 1.2M in ammonium sulfate, and applied to a 2.0×18 cm hexyl agarose column that had been equilibrated in Buffer A containing 1.2M ammonium sulfate. The sample was loaded at a flow rate of 1 mL/min at 4° C., washed with the equilibration buffer for 240 min (1 mL/min) and then eluted using a reverse linear gradient of 1.2-0M ammonium sulfate in Buffer A for 120 min at the same flow rate. The column was then washed isocratically in Buffer A for 120 min.
The active fractions were combined, concentrated to 10 mL using an Amicon stirred cell with a YM-10 membrane and then applied to a MonoS cation exchange column (1.0×10 cm) that had been equilibrated in Buffer A. The sample was loaded at a flow rate of 1 mL/min at 25° C. After washing isocratically for 30 min, the protease was eluted using a linear gradient of 0-0.45M sodium chloride in Buffer A over 40 min. The column was washed isocratically in Buffer A containing 0.45M sodium chloride for 30 min.
The active fractions were combined and concentrated to 200 μL using an Amicon stirred cell and a YM-10 membrane and then the protease was applied to a Superose 6 size exclusion column equilibrated in Buffer A containing 0.1M sodium chloride.
The purified peptide was labeled with a fluorescent marker at the C-terminal end for use in the Pandex assay. N^α -Biotin-[…]OH SEQ ID NO:3. (1.206 g, 0.936 mmol) was dissolved in 100 mL of 0.1M sodium borate, pH 9.5. Then, a solution of 3 g (7.7 mmol) of fluorescein isothiocyanate in 15 mL dimethyl sulfoxide was added to the reaction mixture in 10 equal portions over two hours. The resulting mixture was allowed to react for one hour after the final addition. The solution was adjusted to pH 3 using 5N hydrochloric acid, resulting in the formation of a precipitate which was removed by centrifugation.
E. Fluorescence HIV-1 Protease Inhibitor Assay
The following buffers and solutions are used in the Fluorescence HIV-1 Protease Inhibitor Assay:
MES-ALB Buffer: 0.05M 4-morpholineethane
Avidin Coated 0.1% solution of Fluoricon
Beads Solution: Avidin Assay Particles
(Avidin conjugated to solid
polystyrene beads, 0.6-0.8
microns in diameter in TBSA
27 IU/mL of purified HIV-1
protease in MES-ALB buffer
(1 IU equals the amount of
enzyme required to hydrolyze
1 μmole of substrate per
To each well of a round bottom, 96-well plate is added 20 μL of the Enzyme Solution followed by 10 μL of the compound to be evaluated in a 20% aqueous dimethylsulfoxide solution. Purified HIV-1 protease was obtained as described above.

| IC5 [µg/mL] | Compound |
| --- | --- |
| 1 | CC(C)(C)NC(=O)c1ccccc1C[C@@H](O)[C@H](Cc1ccccc1)NC(=O)[C@H](N)COCc1ccccc1 [Example 13B, [2R-(2R*,3S*,6R*)]-N-t-Butyl-2-[2-hydroxy-3-phenylmethyl-4-aza-5-oxo-6-amino-7-benzyloxy]heptyl benzamide] |

Same assay, conditions: read-out: Fluorescence Assay IC50 (converted)

| Compound | IC50 [nM] |
| --- | --- |
| CC(=O)N[C@H](CC(=O)OCc1ccccc1)C(=O)N[C@@H](Cc1ccccc1)[C@H](O)Cc1ccccc1C(=O)NC(C)(C)C [Example 1C, [2R-(2R*, 3S*, 6R*)1-N-t-Butyl-2-[2-hydroxy-3-phenylmethyl-4-aza-5-oxo-6-N(ethanoyl)amino-7-benzyloxycarbonyl]heptylbenzamide] | 56.1 |
| CC(=O)N[C@H](CC(=O)NCc1ccccn1)C(=O)N[C@@H](Cc1ccccc1)[C@H](O)Cc1ccccc1C(=O)NC(C)(C)C [Example 2, [2R-(2R*, 3S*, 6R*)]-N-t-Butyl-2-[2-hydroxy-3-phenylmethyl-4-aza-5-oxo-6-N(ethanoyl)amino-8-oxo-9-aza-10-pyrid-2-yl]decyl benzamide] | 451 |
| CC(=O)N[C@H](CC(=O)Nc1cnc2ccccc2c1)C(=O)N[C@@H](Cc1ccccc1)[C@H](O)Cc1ccccc1C(=O)NC(C)(C)C [Example 3, [2R-(2R*, 3S*, 6R*)]-N-t-butyl-2-[2-hydroxy-3-phenylmethyl-4-aza-5-oxo-6-N(ethanoyl)amine-8-oxo-8-N (quinolin-3-yl)amine]octyl benzamide] | 548 |
| CC(=O)N[C@H](CC(=O)NCc1ccccc1)C(=O)N[C@@H](Cc1ccccc1)[C@H](O)Cc1ccccc1C(=O)NC(C)(C)C [Example 4, [2R-(2R*, 3S*, 6R *]-N-t-butyl-2-[2-hydroxy-3-phenylmethyl-4-aza-5-oxo-6-N (ethanoyl)amino-8-oxo-9-aza-10-phenyl]decylbenzamide] | 341 |
| CN(C)S(=O)(=O)N[C@H](CC(=O)OCc1ccccc1)C(=O)N[C@@H](Cc1ccccc1)[C@H](O)Cc1ccccc1C(=O)NC(C)(C)C [Example 5, [2R-(2R*, 3S *, 6R*)]-N-t-butyl-2-[2-hydroxy-3-phenylmethyl-4-aza-5-oxo-6-N(dimethylaminosulfonyl)amino-7-benzyloxycarbonyl]heptyl benzamide] | 8.58 |
| CCC(=O)N[C@H](CC(=O)OCc1ccccc1)C(=O)N[C@@H](Cc1ccccc1)[C@H](O)Cc1ccccc1C(=O)NC(C)(C)C [Example 6, [2R-(2R*,3S*,6R*)]-N-t-butyl-2-[2-hydroxy-3-phenylmethyl-4-aza-5-oxo-6-N(propanoyl)amino-7-benzyloxycarbonyl]heptyl benzamide] | 26.6 |
| CCCC(=O)N[C@H](CC(=O)OCc1ccccc1)C(=O)N[C@@H](Cc1ccccc1)[C@H](O)Cc1ccccc1C(=O)NC(C)(C)C [Example 7, [2R-(2R*, 3S *, 6R*)]-N-t-butyl-2-[2-hydroxy-3-phenylmethyl-4-aza-5-oxo-6-N(butanoyl)amino-7-benzyloxycarbonyl]heptyl benzamide] | 115 |
| CC(C)(C)NC(=O)c1ccccc1C[C@@H](O)[C@H](Cc1ccccc1)NC(=O)[C@@H](CC(=O)Nc1ccc2ccccc2n1)NS(C)(=O)=O [Example 9, [2R-(2R*, 3S*, 6R*)]-N-t-butyl-2-[2-hydroxy-3-phenylmethyl-4-aza-5-oxo-6-N-(methylsulphonyl)amino-8-oxo-8-N (quinolin-2-yl)amino]octyl benzamide] | 13.6 |
| CC(C)(C)NC(=O)c1ccccc1C[C@@H](O)[C@H](Cc1ccccc1)NC(=O)[C@@H](CC(=O)NCc1ccccc1)NS(C)(=O)=O [Example 10, [2R-(2R*, 3S*, 6R*)]-N-t-butyl-2-[2-hydroxy-3-phenylmethyl-4-aza-5-oxo-6-N(methylsulfonyl)amino-8-oxo-8-N(benzyl)amino]octyl benzamide] | 4.34 |
| CC(C)(C)NC(=O)c1ccccc1C[C@@H](O)[C@H](Cc1ccccc1)NC(=O)[C@@H](CC(=O)NCc1ccc2ccccc2n1)NS(C)(=O)=O [Example 11, [2R-(2R*, 3S*, 6R)]-N-t-butyl-2-[2-hydroxy-3-phenylmethyl-4-aza-5-oxo-6-N(methylsulfonyl)amino-8-oxo-9-aza-10-quinolin-2-yl]decyl benzamide] | 2.52 |
| CC(C)(C)NC(=O)c1ccccc1C[C@@H](O)[C@H](Cc1ccccc1)NC(=O)[C@@H](CC(=O)OCc1ccccc1)NC(N)=O [Example 12, [2R-(2R*, 3S*, 6R*)]-N-t-butyl-2-[2-hydroxy-3-phenylmethyl-4-aza-5-oxo-6-N(carbamoyl)amino-7-benzyloxycarbonyl]heptyl benzamide] | 28.9 |
| CC(C)(C)NC(=O)c1ccccc1C[C@@H](O)[C@H](Cc1ccccc1)NC(=O)[C@@H](COCc1ccccc1)NS(C)(=O)=O [Example 14, [2R-(2R*, 3S*, 6R*)]-N-t-Butyl-2-[2-hydroxy-3-phenylmethyl-4-aza-5-oxo-6-N (methylsulfonyl)amino-7-benzyloxy]heptyl benzamide] | 43.6 |
| CC(C)(C)NC(=O)c1ccccc1C[C@@H](O)[C@H](Cc1ccccc1)NC(=O)[C@@H](CSc1ccc2ccccc2c1)NC(=O)OC(C)(C)C [Example 15A, [2R-(2R*,3S*,6S*)]-N-t-Butyl-2-[2-hydroxy-3-phenylmethyl-4-aza-5-oxo-6-N(t-butoxycarbonyl)amino-7-naphth-2-ylthio]heptyl benzamide] | > 1490 |

Further lines, results first:

| IC50 [nM] | Compound |
| --- | --- |
| 130 | CC(=O)N[C@H](CSc1ccccc1)C(=O)N[C@@H](Cc1ccccc1)[C@H](O)Cc1ccccc1C(=O)NC(C)(C)C (relative stereo) [Example 20A, [2R(2R*,3S*,6S*)]-N-t-Butyl-2-[2-hydroxy-3-phenylmethyl-4-aza-5-oxo-6-N(ethanoyl)amino-7-phenylthio]heptyl benzamide] |
| 3.69 | CC(C)(C)NC(=O)c1ccccc1C[C@@H](O)[C@H](Cc1ccccc1)NC(=O)[C@@H](CC(=O)OCc1ccccc1)NS(C)(=O)=O [Example 8A, [2R-(2R*,3S*, 6R*)]-N-t-butyl-2-[2-hydroxy-3-phenylmethyl-4-aza-5-oxo-6-N(methylsulfonyl)amino-7-benzyloxycarbonyl]heptyl benzamide] |
| 230 | CC(=O)N[C@H](COCc1ccccc1)C(=O)N[C@@H](Cc1ccccc1)[C@H](O)Cc1ccccc1C(=O)NC(C)(C)C [Example 13C, [2R-(2R*, 3S*, 6R*)]-N-t-Butyl-2-[2-hydroxy-3-phenylmethyl-4-aza-5-oxo-6-N(ethanoyl)amino-7-benzyloxy]heptyl benzamide] |
| 223 | CC(C)(C)NC(=O)c1ccccc1C[C@@H](O)[C@H](Cc1ccccc1)NC(=O)[C@H](N)CSc1ccc2ccccc2c1 [Example 15B, [2R-(2R*,3S*,6S*)]-N-t-Butyl-2-[2-hydroxy-3-phenylmethyl-4-aza-5-oxo-6-amino-7-naphth-2-ylthio]heptyl benzamide] |
| 10.6 | CC(=O)N[C@H](CSc1ccc2ccccc2c1)C(=O)N[C@@H](Cc1ccccc1)[C@H](O)Cc1ccccc1C(=O)NC(C)(C)C [Example 16A, [2R-(2R*, 3S*, 6S*)]-N-t-Butyl-2-[2-hydroxy-3-phenylmethyl-4-aza-5-oxo-6-N (ethanoyl)amino-7-naphth-2-ylthio]heptyl benzamide] |
| 0.186 | CC(=O)N[C@H](CS(=O)(=O)c1ccc2ccccc2c1)C(=O)N[C@@H](Cc1ccccc1)[C@H](O)Cc1ccccc1C(=O)NC(C)(C)C [Example 16B, [2R-(2R*,3S*,6S*)]-N-t-Butyl-2-[2-hydroxy-3-phenylmethyl-4-aza-5-oxo-6-N(ethanoyl)amino-7-naphth-2-ylsulfonyl]heptyl benzamide] |
